In this test the test system is Aβ peptide (1-40 amino acid sequence). As to the kind of experiment: Anti-Aβ IgG antibody titer of murine serum after immunization with Aβ peptides (ELISA on immobilized Aβ 1-40). Conditions: for Antibody titer Animal No. 1 / Antibody titer Animal No. 2 / Antibody titer Animal No. 3 / Antibody titer Animal No. 4: C57BL/6 mouse serum, Day 7 from final 3rd immunization; for Antibody titer Animal No. 1 / Antibody titer Animal No. 2 / Antibody titer Animal No. 3 / Antibody titer Animal No. 4 / Antibody titer Mean: 100 μg/mouse; for Antibody titer Mean: mean of 4 mice, serum Day 7 from final 3rd immunization. The test is classed as in vivo, C57BL/6 mice. In general terms: In an ELISA, binding on a coated surface is turned into a signal by an enzyme label.

Where [1] appears, read: Example 4, result in words on Table 4.
Setting [2] is: Example 7, result in words on Table 7.
Setting [3] is: Example 8, result in words on Table 8.
Where [4] appears, read: Example 2, result in words on Table 2.

“AEFRHDSGKGAIIGLMVGC (added cysteine) [2-9•28-37AACys, 2-9+28-37-amino acid Aβ peptide with addition of Cysteine]”: where the note is “Example 4”, the “Antibody titer Animal No. 1” value was found to be 7038 ng/mL, the “Antibody titer Animal No. 2” value worked out at 29489 ng/mL, the “Antibody titer Animal No. 3” value amounted to 16 ng/mL and the “Antibody titer Animal No. 4” value is given as 17 ng/mL. For the same sequence, the “Antibody titer Mean” value (Example 4) is 9139.9 ng/mL. Also, the “induction of an antibody to Aβ” value under setting [1] is “observed”.
Consider “AEFRHDSGYKGAIIGLMVGC [2-10•28-37AACys, 2-10+28-37-amino acid Aβ peptide with addition of Cysteine]”, for which, for the setting “Example 4”, the “Antibody titer Animal No. 1” value is 72890 ng/mL, the “Antibody titer Animal No. 2” value came to 57573 ng/mL, the “Antibody titer Animal No. 3” value is reported as 6094 ng/mL and the “Antibody titer Animal No. 4” value is listed as 42593 ng/mL. Where the note is “Example 4”, the “Antibody titer Mean” value is 44787.5 ng/mL. Besides, under setting [1], the “induction of an antibody to Aβ” value is given as “observed”.
In the case of “DAEFRHDKGAIIGLMVGC [1-7•28-37AACys, 1-7+28-37-amino acid Aβ peptide with addition of Cysteine]”, where the note is “Example 3”, the “Antibody titer Animal No. 1” value came out at 26 ng/mL, the “Antibody titer Animal No. 2” value is given as 27 ng/mL, the “Antibody titer Animal No. 3” value is 34 ng/mL and the “Antibody titer Animal No. 4” value was determined as 15 ng/mL. Under “Example 3”, the “Antibody titer Mean” value came out at 25.6 ng/mL.
As to “DAEFRHDSGKGAIIGLMVGC [1-9•28-37AACys, 1-9+28-37-amino acid Aβ peptide with addition of Cysteine]”, where the note is “Example 3”, the “Antibody titer Animal No. 1” value is 398 ng/mL, the “Antibody titer Animal No. 2” value was determined as 249 ng/mL, the “Antibody titer Animal No. 3” value worked out at 2772 ng/mL and the “Antibody titer Animal No. 4” value was found to be 8899 ng/mL. Moreover, the “Antibody titer Mean” value (Example 3) is 3079.5 ng/mL. The “induction of an antibody to Aβ” value (Example 3, result in words on Table 3) is “observed”.
Regarding “DAEFRHDSGYAIIGLMVGGVVIAC [1-10•30-42AACys, 1-10+30-42-amino acid Aβ peptide with addition of Cysteine]”, for the setting “Example 1”, the “Antibody titer Animal No. 1” value was found to be 9 ng/mL, the “Antibody titer Animal No. 2” value is given as 7 ng/mL, the “Antibody titer Animal No. 3” value amounted to 11 ng/mL and the “Antibody titer Animal No. 4” value was 8 ng/mL. Also, the “Antibody titer Mean” value (Example 1) was found to be 8.4 ng/mL.
On to “DAEFRHDSGYEVHHQKLVCFFAEDVG [1-18Cys19-25AA, 25-amino acid Aβ peptide wherein cysteine is inserted between residues Nos. 18 and 19]”, for which, for the setting “Example 7”, the “Antibody titer Animal No. 1” value is 1.5 ng/mL, the “Antibody titer Animal No. 2” value is given as 6.6 ng/mL, the “Antibody titer Animal No. 3” value was determined as 71.4 ng/mL and the “Antibody titer Animal No. 4” value is recorded as 1398 ng/mL. Also, the “Antibody titer Mean” value (Example 7) amounted to 369.4 ng/mL. Moreover, the “induction of an antibody to Aβ” value under setting [2] is given as “observed in one of four cases”.
With “DAEFRHDSGYEVHHQKLVCFFAEDVGS [1-18Cys19-26AA, 26-amino acid Aβ peptide wherein cysteine is inserted between residues Nos. 18 and 19]”, where the note is “Example 7”, the “Antibody titer Animal No. 1” value was 127.5 ng/mL, the “Antibody titer Animal No. 2” value turned out to be 7001 ng/mL, the “Antibody titer Animal No. 3” value is recorded as 15779 ng/mL and the “Antibody titer Animal No. 4” value is 164 ng/mL. Moreover, the “Antibody titer Mean” value (Example 7) was 5767.9 ng/mL. The “induction of an antibody to Aβ” value under setting [2] is on record as “observed”.
For the sequence “DAEFRHDSGYEVHHQKLVCFFAEDVGSN [1-18Cys19-27AA, 27-amino acid Aβ peptide wherein cysteine is inserted between residues Nos. 18 and 19]”, where the note is “Example 7”, the “Antibody titer Animal No. 1” value is 2482 ng/mL, the “Antibody titer Animal No. 2” value is given as 3125 ng/mL, the “Antibody titer Animal No. 3” value is 2631 ng/mL and the “Antibody titer Animal No. 4” value came to 17.2 ng/mL. The “Antibody titer Mean” value (Example 7) came out at 2063.8 ng/mL. For the same sequence, under setting [2], the “induction of an antibody to Aβ” value is “observed”.
Consider “DAEFRHDSGYEVHHQKLVCFFAEDVGSNK [1-18Cys19-28AA, 28-amino acid Aβ peptide wherein cysteine is inserted between residues Nos. 18 and 19]”, for which, where the note is “Example 6”, the “Antibody titer Animal No. 1” value stood at 448154 ng/mL, the “Antibody titer Animal No. 2” value was 97146 ng/mL, the “Antibody titer Animal No. 3” value came out at 233411 ng/mL and the “Antibody titer Animal No. 4” value is 57794 ng/mL. Also, the “Antibody titer Mean” value (Example 6) is on record as 209126.3 ng/mL.
On the same counts, the results for “DAEFRHDSGYEVHHQKLVCFFAEDVGSNKC [1-18Cys19-28AACys]” are 19908 ng/mL, 361259 ng/mL, 4161 ng/mL, 29412 ng/mL and 103685.0 ng/mL.
Regarding “DAEFRHDSGYEVHHQKLVCKGAIIGLMVG [1-18Cys28-37AA, Aβ residues 1-18, cysteine, then Aβ residues 28-37]”, where the note is “Example 8”, the “Antibody titer Animal No. 1” value was 12541 ng/mL, the “Antibody titer Animal No. 2” value amounted to 1964 ng/mL, the “Antibody titer Animal No. 3” value amounted to 599 ng/mL and the “Antibody titer Animal No. 4” value was found to be 25102 ng/mL. The “Antibody titer Mean” value (Example 8) was determined as 10051.5 ng/mL. Also, the “induction of an antibody to Aβ” value under setting [3] is “observed”.
Turning to “DAEFRHDSGYEVHHQKLVCKGAIIGLMVGC [1-18Cys28-37AACys, Aβ residues 1-18, cysteine, Aβ residues 28-37, C-terminal cysteine]”, where the note is “Example 8”, the “Antibody titer Animal No. 1” value is recorded as 1073 ng/mL, the “Antibody titer Animal No. 2” value turned out to be 43 ng/mL, the “Antibody titer Animal No. 3” value is 10 ng/mL and the “Antibody titer Animal No. 4” value worked out at 4864 ng/mL. The “Antibody titer Mean” value (Example 8) worked out at 1497.5 ng/mL. Further, under setting [3], the “induction of an antibody to Aβ” value is listed as “observed”.
As for “DAEFRHDSGYEVHHQKLVKGAIIGLMVG [1-18•28-37AA, reference compound]”, where the note is “Example 8”, the “Antibody titer Animal No. 1” value was determined as 11 ng/mL, the “Antibody titer Animal No. 2” value came out at 11 ng/mL, the “Antibody titer Animal No. 3” value was found to be 11 ng/mL and the “Antibody titer Animal No. 4” value is recorded as 9 ng/mL. For the same sequence, the “Antibody titer Mean” value (Example 8) amounted to 10.5 ng/mL.
“DAEFRHDSGYEVHHQKLVKGAIIGLMVGC [1-18•28-37AACys]”: under “Example 8”, the “Antibody titer Animal No. 1” value turned out to be 11 ng/mL, the “Antibody titer Animal No. 2” value is 9 ng/mL, the “Antibody titer Animal No. 3” value is given as 10 ng/mL and the “Antibody titer Animal No. 4” value is 13 ng/mL. Moreover, the “Antibody titer Mean” value (Example 8) was found to be 10.75 ng/mL.
Turning to “DAEFRHDSGYEVHHQKLVKGAIIGLMVGGVVIAC [1-18•28-42AACys, 1-18+28-42-amino acid Aβ peptide with addition of Cysteine]”, where the note is “Example 5”, the “Antibody titer Animal No. 1” value worked out at 69336 ng/mL, the “Antibody titer Animal No. 2” value is listed as 41211 ng/mL, the “Antibody titer Animal No. 3” value stood at 51611 ng/mL and the “Antibody titer Animal No. 4” value is 7004 ng/mL. Besides, the “Antibody titer Mean” value (Example 5) came to 42290.5 ng/mL.
As to “DAEFRHDSGYGAIIGLMVGGVVIAC [1-10•29-42AACys, 1-10+29-42-amino acid Aβ peptide with addition of Cysteine]”, where the note is “Example 1”, the “Antibody titer Animal No. 1” value was determined as 16 ng/mL, the “Antibody titer Animal No. 2” value stood at 16 ng/mL, the “Antibody titer Animal No. 3” value is reported as 87 ng/mL and the “Antibody titer Animal No. 4” value amounted to 11 ng/mL. For the same sequence, the “Antibody titer Mean” value (Example 1) came to 32.6 ng/mL.
As for “DAEFRHDSGYKGAIIGLC [1-10•28-34AACys, 1-10+28-34-amino acid Aβ peptide with addition of Cysteine]”, where the note is “Example 2”, the “Antibody titer Animal No. 1” value came to 29 ng/mL, the “Antibody titer Animal No. 2” value is 30 ng/mL, the “Antibody titer Animal No. 3” value is recorded as 26 ng/mL and the “Antibody titer Animal No. 4” value came to 25 ng/mL. Besides, where the note is “Example 2”, the “Antibody titer Mean” value is given as 27.4 ng/mL.
On the same counts, the results for “DAEFRHDSGYKGAIIGLMC [1-10•28-35AACys, 1-10+28-35-amino acid Aβ peptide with addition of Cysteine]” are 44 ng/mL, 19 ng/mL, 8361 ng/mL, 220 ng/mL and 2161.0 ng/mL.
Take “DAEFRHDSGYKGAIIGLMVC [1-10•28-36AACys, 1-10+28-36-amino acid Aβ peptide with addition of Cysteine]”: under “Example 2”, the “Antibody titer Animal No. 1” value is recorded as 11821 ng/mL, the “Antibody titer Animal No. 2” value is 259763 ng/mL, the “Antibody titer Animal No. 3” value amounted to 77 ng/mL and the “Antibody titer Animal No. 4” value is listed as 44922 ng/mL. Where the note is “Example 2”, the “Antibody titer Mean” value worked out at 79145.6 ng/mL. Also, the “induction of an antibody to Aβ” value under setting [4] is “observed”.
“DAEFRHDSGYKGAIIGLMVGC [1-10•28-37AACys, 1-10+28-37-amino acid Aβ peptide with addition of Cysteine]”: under “Example 2”, the “Antibody titer Animal No. 1” value came out at 79708 ng/mL, the “Antibody titer Animal No. 2” value came to 1531 ng/mL, the “Antibody titer Animal No. 3” value was 24694 ng/mL and the “Antibody titer Animal No. 4” value amounted to 100619 ng/mL. Moreover, under “Example 2”, the “Antibody titer Mean” value was 51638.0 ng/mL. For the same sequence, the “induction of an antibody to Aβ” value under setting [4] is recorded as “observed”.

Source of the values: patent US8512709B2, “Modified amyloid β peptide” (The Chemo-Sero-Therapeutic Research Institue, priority 2008, dated 2013).
